{"source": "patent US20170312324A1", "about": "“USE OF MAITAKE AND MAITAKE GRIFOLAN D COMPONENT IN PREPARATION OF ANTIDEPRESSANT DRUG” (Yunnan University, priority 2014, published 2017)", "origin": "cited, not measured here", "tested_on": "tumor", "conditions": "comparison experiment with mitomycin"}
{"smiles": "CO[C@@]12[C@H](COC(N)=O)C3=C(C(=O)C(C)=C(N)C3=O)N1C[C@@H]1N[C@@H]12", "note": "[mitomycin]", "values": [{"measurement": "anti-tumor rate / tumor inhibition rate", "value": 45, "unit": "%"}]}
